Data on 20 compounds can be found in BindingDB's records for doi:10.1016/j.bmcl.2012.12.028 (Pfizer, 2013).

For orientation: IC50 means the concentration at which inhibition is half-maximal. Low readings indicate higher potency, high ones lower potency.

The test concerns the target T1, P-selectin (Homo sapiens, UniProt P16109).
T1 sequence (P16109 whole entry): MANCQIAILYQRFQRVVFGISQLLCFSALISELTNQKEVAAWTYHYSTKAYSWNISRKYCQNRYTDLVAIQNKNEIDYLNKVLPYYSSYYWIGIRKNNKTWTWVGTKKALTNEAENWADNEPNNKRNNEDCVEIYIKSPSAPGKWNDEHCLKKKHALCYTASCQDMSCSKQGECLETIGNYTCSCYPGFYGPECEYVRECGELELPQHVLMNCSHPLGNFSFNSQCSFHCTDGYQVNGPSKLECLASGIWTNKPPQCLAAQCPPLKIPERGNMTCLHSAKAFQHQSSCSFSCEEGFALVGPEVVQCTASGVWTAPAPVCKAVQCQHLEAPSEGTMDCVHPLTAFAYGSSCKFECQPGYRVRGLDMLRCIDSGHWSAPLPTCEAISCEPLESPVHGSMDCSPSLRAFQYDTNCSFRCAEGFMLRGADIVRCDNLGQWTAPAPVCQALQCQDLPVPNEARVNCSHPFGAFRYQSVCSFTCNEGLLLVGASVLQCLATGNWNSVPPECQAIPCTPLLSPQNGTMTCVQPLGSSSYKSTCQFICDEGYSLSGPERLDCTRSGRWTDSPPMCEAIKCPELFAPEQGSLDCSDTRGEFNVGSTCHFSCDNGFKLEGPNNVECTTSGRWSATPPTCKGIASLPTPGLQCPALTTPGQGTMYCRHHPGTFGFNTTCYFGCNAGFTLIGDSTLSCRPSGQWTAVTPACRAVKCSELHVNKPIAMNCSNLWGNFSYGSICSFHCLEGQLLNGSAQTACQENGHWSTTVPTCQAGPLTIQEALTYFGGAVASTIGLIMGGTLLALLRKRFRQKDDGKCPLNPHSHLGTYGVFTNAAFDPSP
Nature of the test: Inhibition of P-selectin aggregation in platelet surface (unknown origin).
`CN1CCC(NC(=O)c2cnc(NCc3cc(Cl)ccc3Cl)nc2NC2CCNCC2)CC1` gave an IC50 greater than 80000 nM.
For `COc1ccccc1CNc1ncc(C(=O)NCCCO)c(NC2CCCC2)n1` the value was 10000 nM; for `CN1CCC(NC(=O)c2cnc(Nc3cc(Cl)cc(Cl)c3)nc2NC2CCOCC2)CC1`, 1200 nM; for `CN1CCC(NC(=O)c2cnc(Nc3cc(Cl)cc(Cl)c3)nc2NC2CCC(N(C)C)CC2)CC1` (stereo not given), 400 nM.
As for `COc1ccccc1CNc1ncc(C(=O)NCCCN2CCCC2=O)c(NC2CCCC2)n1`, the figure is 17000 nM.
`COc1ccccc1CNc1ncc(C(=O)NCCCCN(C)C)c(NC2CCCC2)n1` displayed an IC50 of 7100 nM.
For the compound `COc1ccccc1CNc1ncc(C(=O)NC2CCN(C)CC2)c(NC2CCCC2)n1`, the IC50 stood at 1500 nM.
As for `CC[C@@H](CO)Nc1nc(Nc2cc(Cl)cc(Cl)c2)ncc1C(=O)NC1CCN(C)CC1`, the figure is 580 nM.
Compound `O[C@@H]1COC[C@H]1Nc1nc(Nc2cc(Cl)cc(Cl)c2)ncc1-c1cccnc1` returned an IC50 of 3000 nM.
For `CN1CCC(NC(=O)c2cnc(Nc3cc(Cl)cc(Cl)c3)nc2N[C@@H]2COC[C@H]2O)CC1` the value was 2200 nM.
As for `Cc1cc(-c2cnc(Nc3cc(Cl)cc(Cl)c3)nc2NC2CCC(N(C)C)CC2)on1` (stereo not given), the figure is 1000 nM; as for `CN1CCC(NC(=O)c2cnc(Nc3cc(Cl)cc(Cl)c3)nc2N[C@H]2CCCCNC2=O)CC1`, 430 nM.
For `CN1CCC(NC(=O)c2cnc(NCc3cc(Cl)ccc3Cl)nc2NC2CCCC2)CC1` the value was 1200 nM.
On to `O=C(NCCCN1CCOC1=O)c1cnc(NCc2cc(Cl)ccc2Cl)nc1NC1CCCC1`, for which the IC50 was found to be 7400 nM.
For `COc1ccccc1CNc1ncc(C(=O)NCCNC(C)=O)c(NC2CCCC2)n1` the value was 6600 nM.
For the compound `O=C(NCCCN1CCCC1=O)c1cnc(NCc2cc(Cl)ccc2Cl)nc1NC1CCCC1`, the IC50 came out at 3100 nM.
`Cc1cc(-c2cnc(Nc3cc(Cl)cc(Cl)c3)nc2NC2CCNCC2)on1` registered an IC50 of 1600 nM.
`O[C@@H]1COC[C@H]1Nc1nc(Nc2cc(Cl)cc(Cl)c2)ncc1Br` yielded an IC50 of 3900 nM.
As for `CN1CCC(NC(=O)c2cnc(NCc3cc(Cl)ccc3Cl)nc2NC2CCC(N(C)C)CC2)CC1` (stereo not given), the figure is 1100 nM; as for `O[C@@H]1COC[C@H]1Nc1nc(Nc2cc(Cl)cc(Cl)c2)ncc1-c1ccc(F)cc1`, greater than 80000 nM.
